One series deals with T1, S. aureus PBP2 (Staphylococcus aureus, UniProt Q9R744).
T1 construct: made in house
T1 sequence (Q9R744 1-727): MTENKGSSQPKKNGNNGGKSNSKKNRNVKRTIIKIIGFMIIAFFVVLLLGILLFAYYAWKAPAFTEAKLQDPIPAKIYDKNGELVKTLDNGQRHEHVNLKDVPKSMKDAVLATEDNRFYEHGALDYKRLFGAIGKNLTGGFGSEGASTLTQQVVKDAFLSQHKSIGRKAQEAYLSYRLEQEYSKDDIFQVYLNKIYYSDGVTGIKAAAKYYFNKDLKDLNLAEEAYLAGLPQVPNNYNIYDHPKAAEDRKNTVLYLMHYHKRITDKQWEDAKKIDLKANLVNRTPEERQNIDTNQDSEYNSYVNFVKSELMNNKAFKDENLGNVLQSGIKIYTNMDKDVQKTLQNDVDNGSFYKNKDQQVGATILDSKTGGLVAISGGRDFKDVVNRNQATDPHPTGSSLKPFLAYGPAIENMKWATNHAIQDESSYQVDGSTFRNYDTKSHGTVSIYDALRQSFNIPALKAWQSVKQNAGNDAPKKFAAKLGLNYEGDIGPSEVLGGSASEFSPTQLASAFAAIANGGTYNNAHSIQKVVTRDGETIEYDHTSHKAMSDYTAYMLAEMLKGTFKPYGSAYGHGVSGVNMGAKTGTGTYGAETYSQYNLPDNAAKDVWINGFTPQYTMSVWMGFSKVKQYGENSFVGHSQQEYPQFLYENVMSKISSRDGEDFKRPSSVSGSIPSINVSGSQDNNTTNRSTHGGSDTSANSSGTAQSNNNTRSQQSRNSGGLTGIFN
Description: IC50 for transglycosylase inhibition, S. aureus PBP2, [14C]-GlcNAc-labeled lipid II analogue. The format is biochemical. The protocol:
S. aureus PBP2 was over-expressed and purified as described^4,5. The IC50s for moenomycin and neryl compounds were carried out using the following reaction condition: (0-50 μM) and PBP2 (final concentration 30 nM) were incubated in Eppendorf tubes containing 9 μL of buffer [(50 mM HEPES buffer, 50 mM MOPS, 50 mM MES, 50 mM AcOH) at pH 5.0, 10 mM CaCl2, 20% DMSO (v/v), 250 unit/mL penicillin G] for 30 min. The reaction was initiated by adding 4 μM [^14C]-GlcNAc-labeled lipid II analogue^4 (specific activity=101 cpm/pmol) and quenched after 80 min with 10 μL of ice-cold 10 mM Tris (pH=8.0) containing 0.2% Triton X-100. The reaction mixture was immediately spotted on cellulose chromatography paper (3MM Whatmann). Products and starting material were separated using chromatography (isobutryic acid:1 N NH4OH=5:3) and quantitated by scintillation counting. The data were fit using Prism, as described^3,4.

Another series concerns the target T2, E. faecalis PBP2a (Enterococcus faecalis, UniProt Q837Z4).
T2 sequence (Q837Z4 1-728): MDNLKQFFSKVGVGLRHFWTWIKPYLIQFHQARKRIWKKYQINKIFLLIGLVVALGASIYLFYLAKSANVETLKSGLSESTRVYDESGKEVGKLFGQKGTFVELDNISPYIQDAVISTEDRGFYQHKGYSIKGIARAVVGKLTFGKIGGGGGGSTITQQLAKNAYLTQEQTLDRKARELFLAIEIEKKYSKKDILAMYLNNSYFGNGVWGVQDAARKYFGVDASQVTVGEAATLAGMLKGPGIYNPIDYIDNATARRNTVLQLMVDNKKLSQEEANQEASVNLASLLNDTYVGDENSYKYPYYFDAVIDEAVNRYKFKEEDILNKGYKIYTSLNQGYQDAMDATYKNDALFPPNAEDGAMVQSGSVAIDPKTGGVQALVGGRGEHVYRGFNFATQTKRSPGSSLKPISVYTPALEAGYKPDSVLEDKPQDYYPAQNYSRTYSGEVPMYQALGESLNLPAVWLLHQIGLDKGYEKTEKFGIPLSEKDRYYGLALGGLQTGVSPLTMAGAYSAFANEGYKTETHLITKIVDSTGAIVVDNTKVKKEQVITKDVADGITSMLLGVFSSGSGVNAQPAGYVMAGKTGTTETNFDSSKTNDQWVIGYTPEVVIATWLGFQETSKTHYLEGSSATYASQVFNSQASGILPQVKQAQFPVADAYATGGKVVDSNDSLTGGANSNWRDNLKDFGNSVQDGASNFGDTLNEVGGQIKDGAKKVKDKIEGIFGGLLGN
Description: IC50 for transglycosylase inhibition, E. faecalis PBP2a, [14C]-GlcNAc-labeled lipid II analogue. It is filed as biochemical. An excerpt:
The pbp2a gene was PCR-amplified from E. faecalis (CL4877) purified genomic DNA using the following primer pair: 5′-[…] AATCTTAAACAATTTTTT-3′ (SEQ ID NO: 1) and 5′[…]-3′ (SEQ ID NO: 2). The first primer introduced a NdeI restriction site (underlined), and the second primer introduced a XhoI site into the PCR product. The PCR product was subcloned into pET42 (Novagen) for expression in E. coli BL21(DE3) (Novagen) as a C-terminal His8 fusion. PBP2a was expressed after induction of a log phase culture grown at 37° C. with 1 mM IPTG and grown at 15° C. for an additional 20 h. The cells were harvested by centrifugation, and the cell pellets were resuspended in buffer A (20 mM Tris-HCl, 150 mM NaCl, pH 7.4) supplemented with 360 kU of rLysozyme (Novagen). The cells were lysed using a French pressure cell at 16,000 psi in buffer A. Freely soluble proteins were decanted and the pellet resuspended in buffer A containing 0.5% Sarkosyl to release membrane-anchored PBP2a. […] Fractions were analyzed by 12% SDS-PAGE, pooled and concentrated using a Amicon Ultra Centrifuga Filter Device (50K MW cutoff). […]
IC50 Values for PBP2a. […] Products and starting material were separated using chromatography (isobutryic acid:1 N NH4OH=5:3) and quantitated by scintillation counting. […]

In series [1] the test system is S. aureus, bacterial strain 29213. Description: MIC, standard microdilution assay, S. aureus. The format is cell-based. Conditions: Staphylococcus aureus, no visible growth after 35° C. for 22 h, read-out: MIC (μg/ml) S. aureus. An excerpt: (§1) MIC values (μg/mL) were obtained using a standard microdilution assay.
(In general: In broth dilution the organism is exposed to a series of concentrations in liquid medium.)

For series [2], the system named is E. faecalis, bacterial strain 29212. Description: MIC, standard microdilution assay, E. faecalis. It is filed as cell-based. The note with it: Enterococcus faecalis, no visible growth after 35° C. for 22 h, read-out: MIC (μg/ml) E. faecalis.
Description: as §1

A further series has as its system bacteria. Conditions: on a molar basis, cited from earlier work.
For series [3] the following is noted: cited from earlier work.

Converted amounts (≈) assume the structure as drawn. Read-outs that look alike come from different tables or passages of the source.

With `C=C(C/C=C(\C)CCC=C(C)C)CCC(C)(C)/C=C/CC/C(C)=C\CO[C@H](COP(=O)(O)O[C@H]1OC(C(N)=O)[C@@](C)(O)[C@H](OC(N)=O)C1O[C@@H]1OC(CO[C@@H]2OC(CO)[C@@H](O)[C@H](O)C2O)[C@@H](O[C@@H]2OC(C)[C@@H](O[C@@H]3OC(C(=O)NC4=C(O)CCC4=O)[C@H](O)[C@H](O)C3O)[C@H](O)C2NC(C)=O)[C@H](O)C1NC(C)=O)C(=O)O` (stereo partly drawn) [compound 1, Moenomycin A], the results for the IC50 against S. aureus PBP2 and against E. faecalis PBP2a were 22.1 nM and 26.5 nM, respectively. The MIC in series [1] came to 0.016 µg/mL (≈ 0.0101 µM); in series [2], 0.063 µg/mL (≈ 0.0398 µM). The “potency relative to vancomycin” value with bacteria (listed as Moenomycin A) is reported as “a thousand times more potent than the antibiotic vancomycin”; with bacteria (listed as moenomycin A), “a thousand times more potent than vancomycin”. Also, the “absorption upon oral administration” value in series [3] (oral) is “relatively poor”. In series [3] (related to the lipid side chain), the pharmacokinetic properties entry is “poor pharmacokinetic properties”.

Consider `CC(=O)NC1[C@H](O[C@@H]2C(CO[C@@H]3OC(CO)[C@@H](O)[C@H](O)C3O)O[C@@H](OC3[C@@H](OP(=O)(O)OC[C@@H](OC/C=C(/C)CCC=C(C)C)C(=O)O)OC(C(N)=O)[C@@](C)(O)[C@@H]3OC(N)=O)C(NC(C)=O)[C@H]2O)OC(C)[C@@H](O[C@@H]2OC(C(=O)NC3=C(O)CCC3=O)[C@H](O)[C@H](O)C2O)[C@@H]1O` (stereo partly drawn) [compound 15], for which the IC50 against S. aureus PBP2 was 41.4 nM; on E. faecalis PBP2a (PBP2a 52 nM, pH 7.5, 4 μM lipid II analogue, read-out: IC50 (μg/ml) E. faecalis PBP2a (converted)), 16 nM. The MIC in series [1] and in series [2] was over 250 µg/mL throughout.

(Values after patent US8604004B2, “Moenomycin analogs, methods of synthesis, and uses thereof” (President and Fellows of Harvard College, priority 2007, dated 2013).)
